Source: patent publication US20150105252A1, “SUBSTITUTED PYRAZOLES AS HERBICIDES” (E I DU PONT DE NEMOURS AND COMPANY, priority 2013, published 2015)

What was measured:
[1] = test system: pigweed; assay: Test A preemergence; assay type: in vivo, Amaranthus retroflexus; details: Preemergence, 1000 g ai/ha; 0 to 100 scale, 0 no effect, 100 complete control
Method in brief: (§1)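 Ratings express plant response from 0 (no effect) to 100 (complete control), judged visually against untreated controls after approximately 10 days in the greenhouse. Preemergence applications were made as directed soil sprays onto seeded loam–sand mix, and postemergence applications onto 2–10 cm plants at one- to two-leaf stage.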

[2] = test system: velvetleaf; assay: Test A preemergence; assay type: in vivo, Abutilon theophrasti; details: Preemergence, 1000 g ai/ha; 0 to 100 scale, 0 no effect, 100 complete control
Method in brief: as §1

[3] = test system: crabgrass, large; assay: Test A preemergence; assay type: in vivo, Digitaria sanguinalis; details: Preemergence, 1000 g ai/ha; 0 to 100 scale, 0 no effect, 100 complete control
Method in brief: as §1

[4] = test system: barnyardgrass; assay: Test A preemergence; assay type: in vivo, Echinochloa crus-galli; details: Preemergence, 1000 g ai/ha; 0 to 100 scale, 0 no effect, 100 complete control
Method in brief: as §1

[5] = test system: crabgrass, large; assay: Test A postemergence; assay type: in vivo, Digitaria sanguinalis; details: Postemergence, 1000 g ai/ha; visual rating after approx. 10 days, 0 to 100 scale (0 no effect, 100 complete control)
Method in brief: as §1

[6] = test system: barnyardgrass; assay: Test A postemergence; assay type: in vivo, Echinochloa crus-galli; details: Postemergence, 1000 g ai/ha; visual rating after approx. 10 days, 0 to 100 scale (0 no effect, 100 complete control)
Method in brief: as §1

[7] = test system: corn; assay: Test A postemergence; assay type: in vivo, Zea mays; details: Postemergence, 1000 g ai/ha; visual rating after approx. 10 days, 0 to 100 scale (0 no effect, 100 complete control)
Method in brief: as §1

[8] = test system: morningglory; assay: Test A preemergence; assay type: in vivo, Ipomoea spp.; details: Preemergence, 1000 g ai/ha; 0 to 100 scale, 0 no effect, 100 complete control
Method in brief: as §1

[9] = test system: foxtail, giant; assay: Test A preemergence; assay type: in vivo, Setaria faberii; details: Preemergence, 1000 g ai/ha; 0 to 100 scale, 0 no effect, 100 complete control
Method in brief: as §1

[10] = test system: wheat; assay: Test A preemergence; assay type: in vivo, Triticum aestivum
Method in brief: as §1

[11] = test system: velvetleaf; assay: Test A postemergence; assay type: in vivo, Abutilon theophrasti; details: Postemergence, 1000 g ai/ha; visual rating after approx. 10 days, 0 to 100 scale (0 no effect, 100 complete control)
Method in brief: as §1

[12] = test system: morningglory; assay: Test A postemergence; assay type: in vivo, Ipomoea spp.; details: Postemergence, 1000 g ai/ha; visual rating after approx. 10 days, 0 to 100 scale (0 no effect, 100 complete control)
Method in brief: as §1

[13] = test system: pigweed; assay: Test A postemergence; assay type: in vivo, Amaranthus retroflexus; details: Postemergence, 1000 g ai/ha; visual rating after approx. 10 days, 0 to 100 scale (0 no effect, 100 complete control)
Method in brief: as §1

[14] = test system: wheat; assay: Test A postemergence; assay type: in vivo, Triticum aestivum; details: Postemergence, 1000 g ai/ha; visual rating after approx. 10 days, 0 to 100 scale (0 no effect, 100 complete control)
Method in brief: as §1

[15] = test system: foxtail, giant; assay: Test A postemergence; assay type: in vivo, Setaria faberii; details: Postemergence, 1000 g ai/ha; visual rating after approx. 10 days, 0 to 100 scale (0 no effect, 100 complete control)
Method in brief: as §1

[16] = test system: corn; assay: Test A preemergence; assay type: in vivo, Zea mays; details: Preemergence, 1000 g ai/ha; 0 to 100 scale, 0 no effect, 100 complete control
Method in brief: as §1

[17] = Preemergence, 1000 g ai/ha, 0 to 100 scale, 0 no effect, 100 complete control
[18] = preemergence, 500 g ai/ha, visual injury after approx. 10 days, 0 to 100 scale (0 no effect, 100 complete control)

| Compound | Pigweed plant response rating [1] | Velvetleaf plant response rating [2] | Crabgrass, Large plant response rating [3] | Barnyardgrass plant response rating [4] | Crabgrass, Large plant response rating [5] | Barnyardgrass plant response rating [6] | Corn plant response rating [7] | Morningglory plant response rating [8] | Foxtail, Giant plant response rating [9] | Wheat plant response rating [10, 17] | Velvetleaf plant response rating [11] | Morningglory plant response rating [12] | Pigweed plant response rating [13] | Wheat plant response rating [14] | Foxtail, Giant plant response rating [15] | Corn plant response rating [16] | Wheat plant response rating [10, 18] |
| --- | --- | --- | --- | --- | --- | --- | --- | --- | --- | --- | --- | --- | --- | --- | --- | --- | --- |
| CCc1cc(C(=O)NC)nn1Cc1cccc(C(F)(F)F)c1 [Compound 45] | 10 | 0 | 20 | 10 | 40 | 10 | 20 | 10 | 20 | 0 | 30 | 90 | 60 | 10 | 70 | 0 | – |
| CCc1cc(C(=O)NCC(C)(C)C)nn1Cc1cccc(C(F)(F)F)c1 [Compound 46] | 0 | 0 | 10 | 10 | 30 | 10 | 20 | 20 | 20 | 0 | 70 | 70 | 40 | 20 | 60 | 0 | – |
| CCc1cc(C(=O)NCCOC)nn1Cc1cccc(C(F)(F)F)c1 [Compound 48] | 0 | 0 | 10 | 10 | 10 | 10 | 30 | 20 | 10 | 0 | 10 | 50 | 10 | 0 | 20 | 0 | – |
| CCc1cc(C(=O)NCC(C)C)nn1Cc1cccc(C(F)(F)F)c1 [Compound 49] | 50 | 0 | 90 | 30 | 30 | 20 | 30 | 30 | 100 | 0 | 50 | 100 | 50 | 30 | 100 | 0 | – |
| CCCCNC(=O)c1cc(CC)n(Cc2cccc(C(F)(F)F)c2)n1 [Compound 52] | 30 | 10 | 50 | 10 | 30 | 20 | 30 | 30 | 70 | 0 | 40 | 40 | 50 | 30 | 30 | 0 | – |
| CCc1cc(C(=O)NCCC(F)(F)F)nn1Cc1cccc(OC(F)(F)F)c1 [Compound 55] | 80 | 10 | 100 | 10 | 50 | 10 | 20 | 20 | 90 | 0 | 90 | 100 | 70 | 10 | 50 | 0 | – |
| CCc1cc(C(=O)N(C)C)nn1Cc1cccc(OC(F)(F)F)c1 [Compound 56] | 0 | 0 | 0 | 0 | 10 | 0 | 10 | 0 | 10 | 0 | 10 | 70 | 60 | 0 | 20 | 0 | – |
| CCc1cc(C(=O)NCCOC)nn1Cc1cccc(OC(F)(F)F)c1 [Compound 57] | 10 | 0 | 20 | 10 | 10 | 10 | 40 | 10 | 90 | 0 | 30 | 60 | 50 | 0 | 10 | 0 | 0 |
| CCCCNC(=O)c1cc(CC)n(Cc2cccc(OC(F)(F)F)c2)n1 [Compound 62] | 20 | 10 | 40 | 10 | 20 | 10 | 50 | 20 | 60 | 0 | 70 | 80 | 70 | 20 | 30 | 0 | 0 |
